Measurements from patent publication US8816101B2, “Paraconic acids as pigmentation activators” (Centre National de la Recherche Scientifique—CNRS, priority 2010, dated 2014).

Tested on: B16 murine cells
Assay: Melanin content of B16 murine cells by spectrophotometry (pigmenting activity in vitro)
Type: cell-based
Details: B16 cells treated 72 h
Procedure: Protocol: The melanin content of B16 murine cells is determined by spectrophotometry.
The cells are seeded in 10-cm Petri dishes at a density of 1×10^6 per dish and are treated every 24 hours for 72 hours with the specified dose of purified lichenic substance, dissolved in DMSO. […] After treatment, the cells are washed twice with PBS and recovered by treatment with trypsin. The number of cells recovered is estimated by counting using a haemocytometer. One fraction is used for determining the melanin content and a second fraction for the concentration of protein. The melanin content is determined from the absorbance at 405 nm (VersaMax Microplate Reader, Molecular Devices, USA) of the cellular solution after solubilization of the melanin with 1M sodium hydroxide, for 15 min at 80° C. The protein concentration is determined according to the protocol of the “DC Protein Assay” kit developed by Bio-Rad Laboratories, USA. For each sample treated, the melanin content is referred to the amount of protein and expressed as percentage relative to the control situation (DMSO solution only). Each measurement is performed in triplicate and each experiment is carried out independently for a minimum of 3 times.
The molecules tested, with their concentrations expressed in μM, are shown on the abscissa.
On the ordinate, the melanin content is expressed as percentage relative to the control (DMSO alone=concentration of 0.1%).

SMILES | pro-pigmenting effect (% of pigmentation) (5 μM, relative to DMSO control) [%] | pigmentation relative to the control (melanin content) (0.5 μM, control DMSO 0.1%) [%] | depigmentation (0.5 μM, relative to DMSO control) [%]
CCCCCCCCCCCCC[C@H]1OC(=O)C(C)=C1C(=O)O [lichesterinic acid, (+)-Lichesterinic acid] | 26 |  | 
C=C1C(=O)O[C@H](CCCCCCCCCCCCC)[C@H]1C(=O)O [protolichesterinic acid, (+)-Protolichesterinic acid] |  | 72 | 28
